The subject of series [1] is E0771. The series is described as follows: E0771 mammary tumor model: bone marrow multi-spectral flow cytometry. It is filed as in vivo. As to conditions: endpoint. On the procedure: BRQ Alters the Bone Marrow Myeloid Compartment in Triple Negative Breast Cancer Model. This study was performed in another mammary tumor model, termed E0771. The experimental design is as described in FIG. 12 and bone marrow cells were collected at endpoint, as in FIG. 19 for flow cytometric analysis. Here, BM samples were analyzed by multi-spectral high dimensional flow cytometry using a Cytek Aurora Spectral Flow Cytometer and the data are illustrated as a TSNE plot (i.e, t-distributed Stochastic Neighbor). Circled regions refer to the data of interest.
Background: Flow cytometry measures light scatter and fluorescence of single cells or particles in a stream.

The test system of series [2] is myeloid cells and T cells of 4T1 tumor-bearing mice. Description: Flow cytometry of spleen, bone marrow and tumor cells from 4T1 tumor-bearing mice. It is filed as in vivo. On the procedure: FIG. 1. […] (A) 4T1 growth in mice treated daily with BRQ (10 mg/kg, i.p.), anti-PD-1 ([…], i.p. at the indicated 3 or 4 times) or both agents. n=5 mice/group/experiment for upper and lower graphs; *P<0.01 against single-agent treatments. B-D, data shown are for analysis of A, upper graph. (B) Spontaneous metastatic lung counts; *P<0.01. Similar patterns seen in the 2nd experiment (avg. #mets): vehicle=12; BRQ=1; αPD-1=5; combo=1. (C) Splenic granulocytic (CD11b^+Ly6C^loLy6G^+) or monocytic (CD11b^+Ly6C^hiLy6G^−) numbers in non-tumor-bearing (NTB) or tumor-bearing mice were converted to a ratio for group-by-group comparison; *P<0.03. (D) Splenic CD3^+ T cell numbers in tumor-bearing mice. (E) Splenic CD8^+ T cells in A (lower graph) were assayed based on differential expression of CD44:naïve ([…]) vs. effector/central memory (hi) phenotypes. *P<0.03. Data reported as a ratio to indicate a rising memory pool. Data in B-E are at endpoint; ns, not significant.
Treatment of Tumor-Bearing Mice Alters Surface Phenotype of Myeloid Cells. […] Female BALB/c or C57BL/6 mice were orthotopically implanted with 4T1 or AT-3 mammary tumor cells, respectively, and were monitored 3 times weekly for tumor growth. When tumors became measurable (indicated by the arrow), BRQ was administered daily (10 mg/kg intraperitoneally), and at endpoint the BM cells or spleens were collected for flow cytometric analysis for the expression (i.e., percentage or MFI value) of the indicated cell surface markers (FIGS. 13-15). We extended our in vitro studies with BRQ to […] to determine the impact of BRQ on MDSC maturation. To that end, mice bearing orthotopically implanted mammary tumors were treated with or without BRQ in vivo using a similarly previously reported dose, frequency and schedule (Sykes et al. Cell 167:171-186, 2016). The first tumor model chosen was 4T1, which is an aggressive mammary tumor cell line that induces a robust MDSC response largely comprised of PMN-MDSCs.
The upper panels of FIG. 14 are representative flow cytometry plots of the non-tumor-bearing (NTB) or tumor-bearing cohorts without (vehicle) or with BRQ. The middle panel histogram represents CD101 expression on the gated (boxed) populations of the upper panels. In this case, the far-right histograms refer to the gated-boxed right dot plot (for the PMN or granulocytic subset), whereas the gated-boxed left histogram refers to the gated-boxed upper left dot plot (for the monocytic subset). […] FIG. 15 refers to the quantification of the CD101 data from non-tumor-bearing mice or tumor-bearing mice with or without BRQ, based on both the CD101 MFI values and the percentages of CD101^+ (or high-expressing) cells reflecting the monocytic subset (upper left histogram and middle left table) or the PMN-MDSC subset (upper right histogram and middle right table). The quantification appears in the lower left and right graphs. Each point represents an individual mouse.
Effect of Treatment of Tumor-Bearing Mice with BRQ on the Efficacy of Anti-Tumor Immunotherapy. […] At endpoint, BM cells or spleens were collected and analyzed for the indicated populations by flow cytometry. These experiments sought to determine whether BRQ can act in the bone marrow environment. […] The frequency of these cells approached levels seen in the non-tumor-bearing controls. […] Moreover, analysis of the systemic impact of BRQ on T cell numbers and their activation/memory state was performed on splenic population at endpoint (FIG. 20). […] This analysis at the time was not performed on cohorts treated with anti-PD-1 mAb alone or the combination, since the intent was to focus on the effect of BRQ on T cell numbers and their phenotypic states.
Treatment of Tumor-Bearing Mice with BRQ Increases the Proliferative Capacity and Activation of Intra-Tumoral T Cells. Experimental design is as described in FIG. 12. […]

[3] abbreviates: 4T1, BRQ 10 mg/kg i.p. daily, spleen.
[4] abbreviates: 4T1 tumor-bearing mice, endpoint.

Entries after “also recorded” stand apart in the source; their conditions may differ.

With `Cc1c(-c2ccc(-c3ccccc3F)cc2)nc2ccc(F)cc2c1C(=O)O` [BRQ, 6-Fluoro-2-(2′-fluoro-[1,1′-biphenyl]-4-yl)-3-methylquinoline-4-carboxylic acid], in series [1], the “frequency of granulocyte progenitors (GPs) in bone marrow” value is given as “reduced the frequency of granulocyte progenitors” and the “frequency of monocyte progenitors (MPs) in bone marrow” value is given as “increased the frequency of monocyte progenitors”. Moreover, in series [2] (4T1, BRQ 10 mg/kg i.p. daily), the “CD101 expression on splenic granulocytic populations” value is “significantly increased CD101 expression” and the “accumulation of the granulocytic population in the spleen” value is recorded as “did not significantly alter”. In series [2] (setting [3]), the “Ly6C expression on granulocytic cells” value is on record as “significantly higher expression of the cell surface Ly6C” and the “Ly6G expression on granulocytic cells” value is on record as “trended upward but did not reach statistical significance”. In addition, the “tumor-driven expansion of myeloid progenitor populations GMP or GP in bone marrow” value in series [2] (4T1, endpoint) is listed as “reduced tumor-driven expansion”. In addition, the “accumulation of CD11b+Gr-1+ cells in bone marrow” value in series [2] (4T1, vs vehicle controls) is recorded as “reduced the accumulation of CD11b^+Gr-1^+ cells”. Further, the “splenic granulocyte to monocyte ratio” value in series [2] (4T1 tumor-bearing mice vs non-tumor-bearing controls, endpoint) was “significantly altered the granulocyte to monocyte ratio resembling the non-tumor-bearing controls”. Further, in series [2] (setting [4]), the “splenic CD3+ T cell numbers” value is recorded as “did not alter; also recorded: no negative effect” and the “splenic CD8+ T cell memory populations (ratio of memory to naïve T cells by CD44)” value was “did not alter; also recorded: no negative effect”. In series [2] (tumor tissue at endpoint), the “CD44 expression on intratumoral CD8+ and CD4+ T cells” value was “Increases in CD44 expression were similarly observed”; the “proliferative capacity of intratumoral CD8+ and CD4+ T cells (percentages of Ki-67+ cells)” value is on record as “significant increases in the proliferative capacity”.

The values above are taken from US12594271B2, “Combination therapy for cancer” (Health Research, Inc., priority 2019, dated 2026).
